The data set is described as follows: water solubility of complex carbohydrate agents. The format is physicochemical. As for the experimental part:
Specific solubilities are: dextran, 50 mg/ml; hydroxymethylcellulose, 10 mg/ml; cellulose, 0 mg/ml; oat beta glucan, 20 mg/ml.

Regarding hydroxymethylcellulose, the solubility – broadly, the dissolved amount per volume that the medium holds – turned out to be 10 mg/mL.

On to oat beta glucan, for which the solubility worked out at 20 mg/mL.

Source of the values: patent US20200352854A1, “DEVICES AND METHODS FOR PREVENTING AND INHIBITING PERIODONTAL DISEASE” (Fixed Focus LLC, priority 2019, published 2020).
